Three molecules from US5459147A, “Substituted benzimidazolyl derivatives and pharmaceutical compositions containing these compounds” (Dr. Karl Thomae GmbH, priority 1992, dated 1995) can be followed below.

Molecules are shown by their SMILES.

The assay has as its target T1, Angiotensin II-receptor (Rattus norvegicus, UniProt P25095).
T1 construct: The tissue (rats lung) is homogenised in Tris-buffer; from tissue; host or cells: rat lung homogenate (washed 20,000×g pellet)
T1 sequence (P25095 1-359): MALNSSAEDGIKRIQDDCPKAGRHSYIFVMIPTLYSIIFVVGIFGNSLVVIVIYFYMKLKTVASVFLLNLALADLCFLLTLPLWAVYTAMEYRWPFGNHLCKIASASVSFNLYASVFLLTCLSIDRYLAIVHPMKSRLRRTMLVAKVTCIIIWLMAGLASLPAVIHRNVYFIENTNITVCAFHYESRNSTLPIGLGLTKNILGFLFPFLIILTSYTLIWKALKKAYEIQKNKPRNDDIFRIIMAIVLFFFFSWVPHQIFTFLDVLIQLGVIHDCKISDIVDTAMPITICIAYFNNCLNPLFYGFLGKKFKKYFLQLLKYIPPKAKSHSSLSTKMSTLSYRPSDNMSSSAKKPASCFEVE
Briefly: Angiotensin II-receptor bonding. Format: binding. Particulars: rats lung homogenate; 50 pM [125I]-angiotensin II; 60 minutes at 37° C., pH 7.40. The protocol: Description of method: Angiotensin II-receptor bonding
The tissue (rats lung) is homogenised in Tris-buffer (50 mMol Tris, 150 mMol NaCl, 5 mMol EDTA, pH 7.40) and centrifuged twice for 20 minutes at 20,000×g. The finished pellets are resuspended in incubating buffer (50 mMol Tris, 5 mMol MgCl2, 0.2% BSA, pH 7.40) 1:75, based on the moist weight of the tissue. Each 0.1 ml of homogenate is incubated for 60 minutes at 37° C. with 50 pM [^125 I]-angiotensin II (NEN, Dreieich, FRG) with increasing concentrations of the test substance in a total volume of 0.25 ml. Incubation is ended by rapid filtration through glass fiber filter mats. The filters are each washed with 4 ml of ice cold buffer (25 mMol Tris, 2.5 mMol MgCl2, 0.1% BSA, pH 7.40). The bound radioactivity is measured using a gamma-counter. The corresponding IC50 value is obtained from the dose-activity curve.

As a reminder, the IC50 is the point on the concentration scale where inhibition reaches its midpoint. Lower therefore signals higher potency. Molecule `CCCc1nc2c(C)cc(-c3nc4ccccc4n3C)cc2n1Cc1ccc2c(c1)nc(-c1ccccc1)n2Cc1nnn[nH]1` [Substance C, 1-[(1H-tetrazol-5-yl)-methyl]-2-phenyl-5-[(2-n-propyl-4-methyl-6-(1-methyl-benzimidazol-2-yl)-benzimidazol-1-yl)-methyl]-benzimidazole] displayed an IC50 of 2.3 nM. `CCCc1nc2c(C)cc(-c3nc4ccccc4n3C)cc2n1Cc1ccc2nc(-c3ccccc3)n(CC(=O)O)c2c1` [Substance B, 1-hydroxycarbonylmethyl-2-phenyl-6-[(2-n-propyl-4-methyl-6-(1-methyl-benzimidazol-2-yl)-benzimidazol-1-yl)-methyl]-benzimidazole]: the IC50 stood at 23 nM.

On to `CCc1nc2c(C)cc(C)nc2n1Cc1ccc2c(c1)nc(-c1ccccc1)n2CC(=O)O` [Substance A, 1-hydroxycarbonylmethyl-2-phenyl-5-[(2-ethyl-4,6-dimethyl-imidazo[4,5-b]pyridin-1-yl)-methyl]-benzimidazole-trihydrate], for which the IC50 worked out at 120 nM. Compared with the last molecule, the IC50 is about 5.2-fold higher.
